Measured values: patent US5610160A, “Topical 5-fluorouracil prodrug composition and method” (priority 1994, dated 1997)
Values after ≈ are worked out from the molar mass of the structure shown. Where two headings read alike, the source gives them in different places.

What was measured:
[1] = Solubility of prodrug in isopropyl myristate (IPM); conditions: for solubility: isopropyl myristate, organic solvent or mixture
Method: The results from the determination of the physicochemical properties are recorded in the tables as CIPM (the saturated solubility of the prodrug in the isopropyl myristate (IPM) vehicle/formulation in which the prodrug was applied to the mouse skins), K (the partition coefficients of the prodrug between IPM and a pH 4.0 acetate buffer) and Cw (the solubility of the prodrug in pH 4.0 acetate buffer calculated from the partition coefficient and the IPM solubility).

[2] = Diffusion cell experiments: delivery of 5-FU through hairless mouse skin; type: in vitro ADME; conditions: for Jj, flux of theophylline through the skin after application of the prodrug/formulation (relative damage): theophylline from suspension in PG
Method: The diffusion cell experiments were conducted as described by Sloan et al in J. Invest.
^b Flux in mg/cm^2 hour of 5FU from suspensions of prodrugs in
^c Amount of 5FU in mg leached from hairless mouse skin in 24 hours
subsequent to application of prodrug in vehicle for 48 hours.
^d Flux in mg/cm^2 hour of theophylline from suspension in PG.

skin malignancies = conditions: topical, cited from earlier work
[3] = cited from earlier work
[4] = 22° C., cited from earlier work
not told = conditions: 22 °C; cited from earlier work
[5] = Partition coefficient between IPM and pH 4.0 acetate buffer; type: physicochemical; conditions: 23 ± 1° C.
Source text: ^a Partition coefficient between IPM and pH 4.0 acetate buffer at 23

[6] = 37° C., 0.05 M phosphate buffer pH 7.4; Buur et al (1984); cited from earlier work
[7] = 37° C., 80% human plasma; Buur et al (1984); cited from earlier work
[8] = shake-flask, brief shaking, IPM phase analyzed immediately; conditions: 23 ± 1 °C

Row | SMILES | solubility [1] [µg/mL] | Ji, flux of 5-FU through the skin ([2]; from suspensions of prodrugs in IPM, hairless mouse skin) [mg/cm^2 hour] | Cs, amount of 5-FU in the skin ([2]; leached from hairless mouse skin in 24 hours subsequent to application of prodrug in vehicle for 48 hours) [mg] | Jj, flux of theophylline through the skin after application of the prodrug/formulation (relative damage) [2] [mg/cm^2 hour] | treating superficial lesions (skin malignancies; actinic keratoses and basal cell carcinomas) | treating deeper lesions or actinic keratoses of the extremities (skin malignancies) | log K, octanol/pH 4.0 acetate buffer ([3]; octanol/acetate buffer, pH 4) | Cw, solubility at pH 4.0 acetate buffer ([4]; Buur et al (1986), compound 11 from Buur et al (1987)) [mg/ml] | log partition octanol / pH 4.0 acetate buffer (not told) [log10 concentration ratio] | CIPM, equivalent mg of 5FU/ml ([1]; IPM, 23 ± 1° C., value in parentheses) | K, partition coefficient between IPM and pH 4.0 acetate buffer [5] | Half-life, Buffer [6] [min] | Half-life, 80% Plasma [7] [min] | log K, octanol/pH 4.0 acetate buffer ([3]; 22° C., Int. J. Pharm. 21, 349, Buur et al (1984)) | Cw, solubility at pH 4.0 acetate buffer ([4]; Buur et al (1984)) [mg/ml] | log partition isopropyl myristate / pH 4.0 acetate buffer [8] [concentration ratio]
1 | O=c1[nH]cc(F)c(=O)[nH]1 [Compound 5-FU, 5-fluorouracil] | 6.4 (≈ 0.0492 mM) | 0.0311 | 0.48 | 0.215 | successful | ineffective | -0.83 | 11.1 |  |  |  |  |  |  |  | 
2 | CCC(=O)n1c(=O)[nH]cc(F)c1=O [Compound 14] | 2620 (≈ 14.1 mM) |  |  | 0.318 |  |  |  |  | 0.19 | 1.83 equivalent mg of 5FU/ml | 0.088 | 50 | 20 | 0.19 | 35.3 | 0.088
